Experimental findings from patent US12606564B2, “Adenosine receptor antagonist compounds” (ILDONG PHARMACEUTICAL CO., LTD., priority 2019, dated 2026) are described below.

The target of experiment [1] is T1, Human recombinant adenosine A1 receptors (Homo sapiens, UniProt P30542).
T1 construct: expressed in transfected cells; host or cells: CHO-K1, membrane preparation
T1 sequence (P30542 1-326): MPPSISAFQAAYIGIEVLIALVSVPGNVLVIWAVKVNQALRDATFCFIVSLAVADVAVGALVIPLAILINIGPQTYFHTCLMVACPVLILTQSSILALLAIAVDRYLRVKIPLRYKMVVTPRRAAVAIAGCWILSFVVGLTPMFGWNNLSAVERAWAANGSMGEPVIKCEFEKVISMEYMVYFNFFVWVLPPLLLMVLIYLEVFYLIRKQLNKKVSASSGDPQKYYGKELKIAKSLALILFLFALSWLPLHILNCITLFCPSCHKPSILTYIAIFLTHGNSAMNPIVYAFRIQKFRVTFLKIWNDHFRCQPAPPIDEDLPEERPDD
The experiment is described as follows: Human adenosine A1 receptor binding assay with [3H] DPCPX (purine compounds, Example 2.2). The note with it: membranes of CHO-K1 cells. How it is done: Test compound is weighed, dissolved in DMSO to make a stock solution of 10 mM, diluted with DMSO to prepare working solutions, then 100-fold diluted to the indicated concentrations. Human recombinant adenosine A1 receptors expressed in CHO-K1 cells were used to prepare membranes in incubation buffer (20 mM HEPES (4-(2-hydroxyethyl)-1-piperazineethanesulfonic acid) pH 7.4, 10 mM MgCl2, 100 mM NaCl). Test compound or vehicle (2.2 μL) was added in 200 μL of membranes and incubated with 20 μL of 1 nM [^3H] DPCPX (8-cyclopentyl-1,3-dipropylxanthine) for 90 minutes at 25° C. Non-specific binding was estimated in the presence of 100 μM R(−)-PIA ((R)—N-(1-methyl-2-phenylethyl)adenosine). The incubation was stopped by vacuum filtration onto 0.3% PEI (polyethylenimine) presoaked GF/B filters using a harvester followed by four washes with ice-cold 50 mM Tris-HCl, pH 7.4, and the radioactivity on GF/B filtermats counted in a scintillation counter (PerkinElmer Topcount™) to determine [^3H] DPCPX specifically bound. Final concentration of vehicle DMSO is 1%. Data is fitted using the non-linear curve fitting routines in Meth-IQ software (ID Business Solutions Ltd., UK).
The binding affinity of selected compounds against A1 receptor was assessed using the binding assay described above.

The target of experiment [2] is human recombinant A2AR (Homo sapiens, UniProt P29274). The experiment is described as follows: Human A2A functional cAMP assay in human recombinant A2AR stable cell line (HEK293).
human recombinant A2AR, sequence (P29274 whole entry): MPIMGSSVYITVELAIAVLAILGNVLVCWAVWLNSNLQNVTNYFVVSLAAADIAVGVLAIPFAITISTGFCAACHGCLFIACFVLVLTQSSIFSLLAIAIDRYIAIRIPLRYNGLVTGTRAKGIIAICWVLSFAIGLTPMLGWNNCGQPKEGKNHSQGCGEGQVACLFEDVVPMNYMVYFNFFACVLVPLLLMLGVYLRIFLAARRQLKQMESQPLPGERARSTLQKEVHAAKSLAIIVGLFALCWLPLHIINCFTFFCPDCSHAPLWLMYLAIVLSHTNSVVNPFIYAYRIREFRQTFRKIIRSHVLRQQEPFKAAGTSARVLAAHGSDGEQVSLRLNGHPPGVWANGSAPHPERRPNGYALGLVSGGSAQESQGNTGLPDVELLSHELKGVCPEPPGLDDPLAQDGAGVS
Procedure: cAMP assay was performed on human recombinant A2AR stable cell line (HEK293). The cells were cultured at 37° C. and 5% CO2 with culture medium (90% DMEM+10% FBS+500 μg/mL G418). […] Then, 100 nL compounds were transferred by Echo machine with 12 doses respectively. Cells were collected with stimulation buffer (1×HBSS with 5 mM HEPES+0.05 mM IBMX+0.1% BSA) and plated the cells at the density of 5,000 cells/well, centrifuged at 600 rpm for 3 min and then incubation with compounds at room temperature for 60 min. After that, 5 μL 4× Eu-cAMP tracer solution and 5 μL 4× ULight™-anti-cAMP solution were added into the cells, centrifuged at 600 rpm for 3 min and incubated for 60 min. cAMP signal was detected with Envision. GraphPad Prism (version 6.0) was used for the data analysis.
The A2A receptor antagonistic activity of selected compounds was assessed using the cAMP assay described above.
Experiment [3] deals with T2, Human recombinant adenosine A2A receptor (Homo sapiens, UniProt P29274). Put plainly: A2A receptor (A2AR) SPA binding assay with [3H] SCH58261. Also on record: expressed in transfected cells; host or cells: HEK293 (HKE293 [sic]), membrane preparation. The note with it: [3H] SCH58261 radioligand. How it is done:
Test compound is weighed, then dissolved in 100% DMSO to prepare 20 mM stock solution. Dilute the stock solution with DMSO into 100× final concentration, and then use this DMSO solution to perform 3-fold serial dilution for totally 12 concentrations with DMSO. 10-fold diluting the serial dilutions with assay buffer to the working concentrations. […] SCH58261 as the radioligand. The assay buffer is prepared with DPBS containing 10 mM MgCl2. 5 μL of compound working solutions (a total of 12 concentrations starting from 1 or 3 μM, 1/3 dilution) is transferred to the wells by the 12-channel pipette. A2AR membrane is pre-incubated with adenosine deaminase for 15 min at room temperature. Then SPA beads are added and the membrane-bead suspension mixture is incubated for 30 min at room temperature with the rotary mixer. […] SCH58261 radioligand solution. Final concentration of DMSO in the A2AR SPA binding assay is 1%. Sealing the plates and incubate for 1 hr at 27° C. with vigorous mixing on a plate shaker. After 1 hr, centrifuge the plate (1000 rpm, 1 min), and settle the plate for 5 min prior to counting. The signal of radiation is measured by the Microbeta2. […] Non-specific binding refers to the wells containing reaction system with the presence of 100 μM SCH58261. The dose-response curve is fitted with GraphPad Prism 5 and IC50 values are calculated by log(inhibitor) vs. response—Variable slope program with the following formula: Y=Bottom+(Top−Bottom)/(1+10^[…] ligand concentration used in assay/radio ligand Kd)
The binding affinity of selected compounds against A2A receptor was assessed using the SPA binding assay described above.

Experiment [4] addresses T2, Human recombinant adenosine A2A receptor. Put plainly: Human adenosine A2A receptor binding assay with [3H] CGS-21680 (Example 4.2). The settings on record: summary of Table 5, binding assays of Examples 4.1 and 4.2.
Procedure: Test compound is weighed, dissolved in DMSO to make a stock solution of 10 mM, diluted with DMSO to prepare working solutions, then 100-fold diluted to the indicated concentrations. Human recombinant adenosine A2A receptors expressed in HEK-293 cells were used to prepare membranes in incubation buffer (50 mM Tris-HCl, pH 7.4, 10 mM MgCl2, 1 mM EDTA, 2 U/ml Adenosine Deaminase). Test compound or vehicle (2.2 μL) was added in 200 μL of membranes and incubated with 20 μL of 50 nM [^3H] […] Non-specific binding was estimated in the presence of 50 μM NECA (5′-N-ethylcarboxamidoadenosine). The incubation was stopped by vacuum filtration onto 0.3% PEI (polyethylenimine) presoaked GF/B filters using a harvester followed by four washes with ice-cold 50 mM Tris-HCl, pH 7.4, and the radioactivity on GF/B filtermats counted in a scintillation counter (PerkinElmer Topcount™) to determine [^3H] […] Final concentration of vehicle DMSO is 1%.

A value given as a limit tells only on which side of the number the result lay.

T2 sequence (P29274 whole entry): as above

Regarding `N#Cc1cccc(-c2nc(N)nc3c2ncn3Cc2ccc(N)cc2)c1` [Compound 101, 3-(2-amino-9-(4-aminobenzyl)-9H-purin-6-yl) benzonitrile], the inhibition constant Ki (as a rule, a dissociation constant, usually derived from enzyme kinetics or from competition with a known ligand) is over 1000 nM in experiment [1] and 10 to 100 nM in experiment [3]. In experiment [2], the IC50 (in general, the point on the concentration scale where inhibition reaches its midpoint) was over 1000 nM.

`N#Cc1cccc(-c2nc(N)nc3c2ncn3Cc2ccc(N)cc2)c1F` [Compound 102, 3-(2-amino-9-(4-aminobenzyl)-9H-purin-6-yl)-2-fluorobenzonitrile]: in experiment [3], the inhibitory constant (Ki) lay within 100 to 500 nM.

Turning to `N#Cc1cccc(-c2nc(N)nc3c2ncn3Cc2ccc(N)cc2F)c1F` [Compound 103, 3-(2-amino-9-(4-amino-2-fluorobenzyl)-9H-purin-6-yl)-2-fluorobenzonitrile], the inhibitory constant (Ki) in experiment [1] is over 1000 nM; in experiment [3], 10 to 100 nM. Also, in experiment [2], the IC50 is over 1000 nM.

Take `Cc1cc(Cn2cnc3c(-c4cccc(C#N)c4)nc(N)nc32)ccc1N` [Compound 104, 3-(2-amino-9-(4-amino-3-methylbenzyl)-9H-purin-6-yl)benzonitrile]: the Ki is over 1000 nM in experiment [1] and under 10 nM in experiment [3]. Further, the half-maximal inhibitory concentration (IC50) in experiment [2] was under 300 nM.

With `Cc1c(C#N)cccc1-c1nc(N)nc2c1ncn2Cc1ccc(N)cc1` [Compound 105, 3-(2-amino-9-(4-aminobenzyl)-9H-purin-6-yl)-2-methylbenzonitrile], the Ki in experiment [3] was over 500 nM.

On to `Cc1cc(Cn2cnc3c(-c4cccc(C#N)c4F)nc(N)nc32)ccc1N` [Compound 106, 3-(2-amino-9-(4-amino-3-methylbenzyl)-9H-purin-6-yl)-2-fluorobenzonitrile], for which the Ki in experiment [1] was over 1000 nM; in experiment [3], 10 to 100 nM.

In the case of `N#Cc1cccc(-c2nc(N)nc3c2ncn3Cc2c(F)cc(N)cc2F)c1` [Compound 107, 3-(2-amino-9-(4-amino-2,6-difluorobenzyl)-9H-purin-6-yl)benzonitrile], the inhibitory constant (Ki) in experiment [1] was at most 300 nM; in experiment [3], under 10 nM. Moreover, in experiment [2], the IC50 was under 300 nM.

Take `N#Cc1cccc(-c2nc(N)nc3c2ncn3Cc2c(F)cc(N)cc2F)c1F` [Compound 108, 3-(2-amino-9-(4-amino-2,6-difluorobenzyl)-9H-purin-6-yl)-2-fluorobenzonitrile]: the inhibition constant (Ki) in experiment [1] lay within 300 to 1000 nM; in experiment [3], 10 to 100 nM. In addition, the IC50 in experiment [2] is 300 to 1000 nM.

`N#Cc1cccc(-c2nc(N)nc3c2ncn3Cc2ccc(N)cc2F)c1` [Compound 109, 3-(2-amino-9-(4-amino-2-fluorobenzyl)-9H-purin-6-yl)benzonitrile]: the Ki in experiment [1] was 300 to 1000 nM; in experiment [3], under 10 nM. In addition, in experiment [2], the 50% inhibitory concentration (IC50) is under 300 nM.

As for `N#Cc1cccc(-c2nc(N)nc3c2ncn3Cc2ccc(N)c(C(F)(F)F)c2)c1` [Compound 110, 3-[2-amino-9-[[4-amino-3-(trifluoromethyl)phenyl]methyl]purin-6-yl]benzonitrile], the Ki is 300 to 1000 nM in experiment [1] and under 10 nM in experiment [3]. Also, the IC50 in experiment [2] was under 300 nM.

As to `N#Cc1cccc(-c2nc(N)nc3c2ncn3Cc2ccc(N)c(C(F)(F)F)c2)c1F` [Compound 111, 3-[2-amino-9-[[4-amino-3-(trifluoromethyl)phenyl]methyl]purin-6-yl]2-fluorobenzonitrile], the inhibition constant (Ki) in experiment [1] was over 1000 nM; in experiment [3], 10 to 100 nM. In addition, the half-maximal inhibitory concentration (IC50) in experiment [2] is over 1000 nM.

Take `N#Cc1cccc(-c2nc(N)nc3c2ncn3Cc2c(F)cccc2F)c1` [Compound 112, 3-(2-amino-9-(2,6-difluorobenzyl)-9H-purin-6-yl) benzonitrile]: the inhibitory constant (Ki) is at most 300 nM in experiment [1] and under 10 nM in experiment [3]. In addition, the 50% inhibitory concentration (IC50) in experiment [2] is under 300 nM.

For the molecule `N#Cc1cccc(-c2nc(N)nc3c2ncn3Cc2c(F)cccc2F)c1F` [Compound 113, 3-(2-amino-9-(2,6-difluorobenzyl)-9H-purin-6-yl)-2-fluorobenzonitrile], the Ki fell in the range of 300 to 1000 nM in experiment [1] and 10 to 100 nM in experiment [3]. Moreover, in experiment [2], the IC50 was 300 to 1000 nM.

Regarding `Cc1c(C#N)cccc1-c1nc(N)nc2c1ncn2Cc1c(F)cccc1F` [Compound 114, 3-(2-amino-9-(2,6-difluorobenzyl)-9H-purin-6-yl)-2-methylbenzonitrile], the values for the inhibitory constant (Ki) in experiment [1] and in experiment [3] were over 1000 nM and 10 to 100 nM, respectively.

Turning to `N#Cc1cc(-c2nc(N)nc3c2ncn3Cc2ccc(N)cc2)ccn1` [Compound 118, 4-[2-amino-9-[(4-aminophenyl)methyl]purin-6-yl]pyridine-2-carbonitrile], in experiment [3], the Ki is over 500 nM.

For `N#Cc1cccc(-c2nc(N)nc3c2ncn3Cc2ccc(N)cc2F)n1` [Compound 119, 6-[2-amino-9-[(4-amino-2-fluoro-phenyl)methyl]purin-6-yl]pyridine-2-carbonitrile], the inhibition constant Ki in experiment [3] lay within 100 to 500 nM.

With `N#Cc1ccnc(-c2nc(N)nc3c2ncn3Cc2ccc(N)cc2F)c1` [Compound 120, 2-[2-amino-9-[(4-amino-2-fluoro-phenyl)methyl]purin-6-yl]pyridine-4-carbonitrile], the values for the Ki in experiment [1] and in experiment [3] were 300 to 1000 nM and under 10 nM, respectively. The IC50 in experiment [2] was under 300 nM.

`N#Cc1ccnc(-c2nc(N)nc3c2ncn3Cc2c(F)cc(N)cc2F)c1` [Compound 124, 2-[2-amino-9-[(4-amino-2,6-difluoro-phenyl)methyl]purin-6-yl]pyridine-4-carbonitrile]: the results for the Ki in experiment [1] and in experiment [3] were at most 300 nM and under 10 nM, respectively. Besides, the half-inhibitory concentration (IC50) in experiment [2] is under 300 nM.

As to `N#Cc1cncc(-c2nc(N)nc3c2ncn3Cc2c(F)cc(N)cc2F)c1` [Compound 125, 5-[2-amino-9-[(4-amino-2,6-difluoro-phenyl)methyl]purin-6-yl]pyridine-3-carbonitrile], the inhibitory constant (Ki) in experiment [3] was in the range of 100 to 500 nM.

As to `N#Cc1cc(-c2nc(N)nc3c2ncn3Cc2c(F)cc(N)cc2F)ccn1` [Compound 126, 4-[2-amino-9-[(4-amino-2,6-difluoro-phenyl)methyl]purin-6-yl]pyridine-2-carbonitrile], in experiment [3], the Ki lay within 10 to 100 nM.

Take `Cc1cc(Cn2cnc3c(-c4cc(C#N)ccn4)nc(N)nc32)ccc1N` [Compound 128, 2-[2-amino-9-[(4-amino-3-methyl-phenyl)methyl]purin-6-yl]pyridine-4-carbonitrile]: the Ki in experiment [1] was 300 to 1000 nM; in experiment [3] it was under 10 nM. Further, the IC50 in experiment [2] is 300 to 1000 nM.

For `N#Cc1ccnc(-c2nc(N)nc3c2ncn3Cc2c(F)cccc2F)c1` [Compound 132, 2-[2-amino-9-[(2,6-difluorophenyl)methyl]purin-6-yl]pyridine-4-carbonitrile], the Ki in experiment [1] is at most 300 nM; in experiment [3], under 10 nM. For the same molecule, the half-inhibitory concentration (IC50) in experiment [2] was under 300 nM.

`N#Cc1cc(-c2nc(N)nc3c2ncn3Cc2c(F)cccc2F)ccn1` [Compound 134, 4-[2-amino-9-[(2,6-difluorophenyl)methyl]purin-6-yl]pyridine-2-carbonitrile]: the Ki in experiment [3] lay within 10 to 100 nM.

Regarding `N#Cc1cccc(-c2nc(N)nc3c2cnn3Cc2ccc(N)cc2F)c1F` [Compound 203, 3-(6-amino-1-(4-amino-2-fluorobenzyl)-1H-pyrazolo[3,4-d]pyrimidin-4-yl)-2-fluorobenzonitrile], the “activity as dual antagonists of both A2A and A1 receptors (in words)” value in experiment [4] is recorded as “potent activity as dual antagonists”.
